Data as given in patent US8741836B2, “Polypeptides” (Novo Nordisk A/S, priority 2011, dated 2014).
Starred links: 1 amine or outer side, 2 acyl side, 3 side chain; linkers in the order of their positions; H or OH if unused. Positions of bridges follow the written chain, without caps; N, C: chain ends. Residues, ends and D or L forms follow the SMILES beside them. *: point of attachment. C20 diacid = O=C(O)CCCCCCCCCCCCCCCCCCC(=O)*; γGlu = O=C(O)[C@H](CCC(=O)[*:2])N[*:1]

Experiment: Assay (III) ThT fibrillation assay for physical stability
Format: physicochemical
Settings: for ThT pH 4.0 lag time: pH 4.0, ThT fibrillation assay
Text: Assay (III)—ThT Fibrillation Assays for the Assessment of Physical Stability of Protein formulations Low physical stability of a polypeptide may lead to amyloid fibril formation, which is observed as well-ordered, thread-like macromolecular structures in the sample eventually resulting in gel formation. This has traditionally been measured by visual inspection of the sample. However, that kind of measurement is very subjective and depending on the observer. Therefore, the application of a small molecule indicator probe is much more advantageous. Thioflavin T (ThT) is such a probe and has a distinct fluorescence signature when binding to fibrils [Naiki et al. (1989) Anal. Biochem. 177, 244-249; LeVine (1999) Methods. Enzymol. […], 274-284]. The time course for fibril formation can be described by a sigmoidal curve with the following expression [Nielsen et al. (2001) Biochemistry 40, 6036-6046]: [formula] Here, F is the ThT fluorescence at the time t. The constant t0 is the time needed to reach 50% of maximum fluorescence. […] Few of those intermediates nucleate to form a template onto which further intermediates may assembly and the fibrillation proceeds. The lag-time corresponds to the interval in which the critical mass of nucleus is built up and the apparent rate constant is the rate with which the fibril itself is formed. Sample Preparation Samples were prepared freshly before each assay. Each sample composition is described in each example. The pH of the sample was adjusted to the desired value using appropriate amounts of concentrated NaOH and HClO4 or HCl. Thioflavin T was added to the samples from a stock solution in H2O to a final concentration of 1 μM. Sample aliquots of 200 μl were placed in a 96 well microtiter plate (Packard OptiPlate™-96, white polystyrene). Usually, four or eight replica of each sample (corresponding to one test condition) were placed in one column of wells. The plate was sealed with Scotch Pad (Qiagen). Incubation and Fluorescence Measurement Incubation at given temperature, shaking and measurement of the ThT fluorescence emission were done in a Fluoroskan Ascent FL fluorescence platereader or Varioskan platereader (Thermo Labsystems). The temperature was adjusted to 37° C. The orbital shaking was adjusted to 960 rpm with an amplitude of 1 mm in all the presented data. Fluorescence measurement was done using excitation through a 444 nm filter and measurement of emission through a 485 nm filter. Each run was initiated by incubating the plate at the assay temperature for 10 min. The plate was measured every 20 minutes for a desired period of time. Between each measurement, the plate was shaken and heated as described. Data Handling The measurement points were saved in Microsoft Excel format for further processing and curve drawing and fitting was performed using GraphPad Prism. The background emission from ThT in the absence of fibrils was negligible. The data points are typically a mean of four or eight samples and shown with standard deviation error bars. Only data obtained in the same experiment (i.e. samples on the same plate) are presented in the same graph ensuring a relative measure of fibrillation between experiments. The data set may be fitted to Eq. (1). However, since full sigmodial curves in this case are not always achieved during the measurement time, the degree of fibrillation is expressed as ThT fluorescence tabulated as the mean of the samples and shown with the standard deviation at various time points. Measurement of Initial and Final Concentrations The polypeptide concentration in each of the tested formulations were measured both before application in the ThT fibrillation assay (“Initial”) and after completion of the ThT fibrillation (“After ThT assay”). Concentrations were determined by reverse HPLC methods using a pramlintide standard as a reference. Before measurement after completion 150 μl was collected from each of the replica and transferred to an Eppendorf tube. […]

For CC(C)C[C@H](NC(=O)[C@H](CCCNC(=N)N)NC(=O)[C@H](CCC(N)=O)NC(=O)[C@@H](NC(=O)[C@H](C)NC(=O)[C@@H]1CSSC[C@H](NC(=O)[C@H](CCCCN)NC(=O)CC[C@H](NC(=O)CCCCCCCCCCCCCCCCCCC(=O)O)C(=O)O)C(=O)N[C@@H](CC(N)=O)C(=O)N[C@@H]([C@@H](C)O)C(=O)N[C@@H](C)C(=O)N[C@@H]([C@@H](C)O)C(=O)N1)[C@@H](C)O)C(=O)N[C@@H](C)C(=O)N[C@@H](CCC(=O)O)C(=O)N[C@@H](Cc1ccccc1)C(=O)N[C@@H](CC(C)C)C(=O)N[C@@H](CCCNC(=N)N)C(=O)N[C@@H](Cc1c[nH]cn1)C(=O)N[C@@H](CO)C(=O)N[C@@H](CO)C(=O)N[C@@H](CC(N)=O)C(=O)N[C@@H](CC(N)=O)C(=O)N[C@@H](Cc1ccccc1)C(=O)NCC(=O)N[C@@H](C)C(=O)N1CCC[C@H]1C(=O)N[C@@H](CC(C)C)C(=O)N[C@@H](CO)C(=O)N[C@@H](CO)C(=O)N[C@H](C(=O)N[C@@H](CC(N)=O)C(=O)N[C@H](C(=O)NCC(=O)N[C@@H](CO)C(=O)N[C@@H](Cc1c[nH]cn1)C(=O)N[C@H](C(=O)N[C@@H](Cc1ccc(O)cc1)C(N)=O)[C@@H](C)O)C(C)C)[C@@H](C)O [Example 65, N-alpha-[(S)-4-Carboxy-4-(19-carboxynonadecanoylamino)butyryl]-[Glu14,Arg17,Ala25,Pro26,Ser28,Ser29,His35]-pramlintide] ({C20 diacid-γGlu}-KCNTATCATQRLAEFLRHSSNNFGAPLSSTNVGSHTY-NH2; disulfide 2-7), the “ThT pH 4.0 lag time” value was greater than 45 h.

With CC[C@H](C)[C@H](NC(=O)[C@@H]1CCCN1C(=O)CNC(=O)[C@H](Cc1ccccc1)NC(=O)[C@H](CC(N)=O)NC(=O)[C@H](CC(N)=O)NC(=O)[C@H](CO)NC(=O)[C@H](CO)NC(=O)[C@H](Cc1c[nH]cn1)NC(=O)[C@H](Cc1cnc[nH]1)NC(=O)[C@H](CC(C)C)NC(=O)[C@H](Cc1ccccc1)NC(=O)[C@H](CCC(=O)O)NC(=O)[C@H](C)NC(=O)[C@H](CC(C)C)NC(=O)[C@H](CCCNC(=N)N)NC(=O)[C@H](CCC(N)=O)NC(=O)[C@@H](NC(=O)[C@H](C)NC(=O)[C@@H]1CSSC[C@H](NC(=O)[C@H](CCCCN)NC(=O)CC[C@H](NC(=O)CCCCCCCCCCCCCCCCCCC(=O)O)C(=O)O)C(=O)N[C@@H](CC(N)=O)C(=O)N[C@@H]([C@@H](C)O)C(=O)N[C@@H](C)C(=O)N[C@@H]([C@@H](C)O)C(=O)N1)[C@@H](C)O)C(=O)N[C@@H](CC(C)C)C(=O)N1CCC[C@H]1C(=O)N1CCC[C@H]1C(=O)N[C@H](C(=O)N[C@@H](CC(N)=O)C(=O)N[C@H](C(=O)NCC(=O)N[C@@H](CO)C(=O)N[C@@H](CC(N)=O)C(=O)N[C@H](C(=O)N1CCC[C@H]1C(N)=O)[C@@H](C)O)C(C)C)[C@@H](C)O [Example 52, N-alpha-[(S)-4-Carboxy-4-(19-carboxynonadecanoylamino)butyryl]-[Glu14,His17,Pro37]-pramlintide] ({C20 diacid-γGlu}-KCNTATCATQRLAEFLHHSSNNFGPILPPTNVGSNTP-NH2; disulfide 2-7) the “ThT pH 4.0 lag time (physical stability in fibrillogenesis assay)” value was greater than 45 h.

For CC[C@H](C)[C@H](NC(=O)[C@@H]1CCCN1C(=O)CNC(=O)[C@H](Cc1ccccc1)NC(=O)[C@H](CO)NC(=O)[C@H](CO)NC(=O)[C@H](CO)NC(=O)[C@H](CO)NC(=O)[C@H](CCCNC(=N)N)NC(=O)[C@H](Cc1cnc[nH]1)NC(=O)[C@H](CC(C)C)NC(=O)[C@H](Cc1ccccc1)NC(=O)[C@H](CCC(=O)O)NC(=O)[C@H](C)NC(=O)[C@H](CC(C)C)NC(=O)[C@H](CCCNC(=N)N)NC(=O)[C@H](CCC(N)=O)NC(=O)[C@@H](NC(=O)[C@H](C)NC(=O)[C@@H]1CSSC[C@H](NC(=O)[C@H](Cc2cnc[nH]2)NC(=O)CC[C@H](NC(=O)CCCCCCCCCCCCCCCCCCC(=O)O)C(=O)O)C(=O)N[C@@H](CC(N)=O)C(=O)N[C@@H]([C@@H](C)O)C(=O)N[C@@H](C)C(=O)N[C@@H]([C@@H](C)O)C(=O)N1)[C@@H](C)O)C(=O)N[C@@H](CC(C)C)C(=O)N1CCC[C@H]1C(=O)N1CCC[C@H]1C(=O)N[C@H](C(=O)N[C@@H](CC(=O)O)C(=O)N[C@H](C(=O)NCC(=O)N[C@@H](CO)C(=O)N[C@@H](CC(=O)O)C(=O)N[C@H](C(=O)N[C@@H](Cc1ccc(O)cc1)C(N)=O)[C@@H](C)O)C(C)C)[C@@H](C)O [Example 9, N-alpha-[(S)-4-Carboxy-4-(19-carboxynonadecanoylamino)butyryl]-[His1,Glu14,His17,Arg18,Ser21,Ser22,Asp31,Asp35]-pramlintide] ({C20 diacid-γGlu}-HCNTATCATQRLAEFLHRSSSSFGPILPPTDVGSDTY-NH2; disulfide 2-7), the “ThT pH 4.0 lag time (physical stability in fibrillogenesis assay)” value was greater than 45 h.

With CC[C@H](C)[C@H](NC(=O)[C@@H]1CCCN1C(=O)CNC(=O)[C@H](Cc1ccccc1)NC(=O)[C@H](CC(N)=O)NC(=O)[C@H](CC(N)=O)NC(=O)[C@H](CO)NC(=O)[C@H](CO)NC(=O)[C@H](Cc1c[nH]cn1)NC(=O)[C@H](CCCNC(=N)N)NC(=O)[C@H](CC(C)C)NC(=O)[C@H](Cc1ccccc1)NC(=O)[C@H](CCC(=O)O)NC(=O)[C@H](C)NC(=O)[C@H](CC(C)C)NC(=O)[C@H](CCCNC(=N)N)NC(=O)[C@H](CCC(N)=O)NC(=O)[C@@H](NC(=O)[C@H](C)NC(=O)[C@@H]1CSSC[C@H](NC(=O)[C@H](CCCCN)NC(=O)CC[C@H](NC(=O)CCCCCCCCCCCCCCCCCCC(=O)O)C(=O)O)C(=O)N[C@@H](CC(N)=O)C(=O)N[C@@H]([C@@H](C)O)C(=O)N[C@@H](C)C(=O)N[C@@H]([C@@H](C)O)C(=O)N1)[C@@H](C)O)C(=O)N[C@@H](CC(C)C)C(=O)N1CCC[C@H]1C(=O)N1CCC[C@H]1C(=O)N[C@H](C(=O)N[C@@H](CC(N)=O)C(=O)N[C@H](C(=O)NCC(=O)N[C@@H](CO)C(=O)N[C@@H](Cc1cnc[nH]1)C(=O)N[C@H](C(=O)N[C@@H](Cc1ccc(O)cc1)C(N)=O)[C@@H](C)O)C(C)C)[C@@H](C)O [Example 57, N-alpha-[(S)-4-Carboxy-4-(19-carboxynonadecanoylamino)butyryl]-[Glu14,Arg17,His35]-pramlintide] ({C20 diacid-γGlu}-KCNTATCATQRLAEFLRHSSNNFGPILPPTNVGSHTY-NH2; disulfide 2-7) the “ThT pH 4.0 lag time (physical stability in fibrillogenesis assay)” value was greater than 45 h.

In the case of CC[C@H](C)[C@H](NC(=O)[C@@H]1CCCN1C(=O)CNC(=O)[C@H](Cc1ccccc1)NC(=O)[C@H](CC(N)=O)NC(=O)[C@H](CCC(N)=O)NC(=O)[C@H](CO)NC(=O)[C@H](CO)NC(=O)[C@H](Cc1c[nH]cn1)NC(=O)[C@H](CCCNC(=N)N)NC(=O)[C@H](CC(C)C)NC(=O)[C@H](Cc1ccccc1)NC(=O)[C@H](CCC(=O)O)NC(=O)[C@H](C)NC(=O)[C@H](CC(C)C)NC(=O)[C@H](CCCNC(=N)N)NC(=O)[C@H](CCC(N)=O)NC(=O)[C@@H](NC(=O)[C@H](C)NC(=O)[C@@H]1CSSC[C@H](NC(=O)[C@H](CCC(=O)O)NC(=O)[C@H](CCCNC(=N)N)NC(=O)[C@H](CCC(=O)O)NC(=O)CC[C@H](NC(=O)CCCCCCCCCCCCCCCCCCC(=O)O)C(=O)O)C(=O)N[C@@H](CC(N)=O)C(=O)N[C@@H]([C@@H](C)O)C(=O)N[C@@H](C)C(=O)N[C@@H]([C@@H](C)O)C(=O)N1)[C@@H](C)O)C(=O)N[C@@H](CC(C)C)C(=O)N1CCC[C@H]1C(=O)N1CCC[C@H]1C(=O)N[C@H](C(=O)N[C@@H](CC(N)=O)C(=O)N[C@H](C(=O)NCC(=O)N[C@@H](CO)C(=O)N[C@@H](CC(N)=O)C(=O)N[C@H](C(=O)N1CCC[C@H]1C(N)=O)[C@@H](C)O)C(C)C)[C@@H](C)O [Example 161, N-alpha-[(S)-4-Carboxy-4-(19-carboxynonadecanoylamino)butyryl]-Glu-Arg-[Glu1,Glu14,Arg17,Gln21,Pro37]-pramlintide] ({C20 diacid-γGlu}-ERECNTATCATQRLAEFLRHSSQNFGPILPPTNVGSNTP-NH2; disulfide 4-9 (inferred)), the “ThT pH 4.0 lag time (physical stability in fibrillogenesis assay)” value is reported as greater than 45 h and the “ThT pH 4.0 lag time” value is reported as greater than 45 h.
